Assay results taken from US8871760B2, “[1,2,4]triazolo[3,4-C][1,4]oxazines as P2X7 modulators” (Roche Palo Alto LLC, priority 2009, dated 2014).
Each block holds one compound with its values, some of them ahead of it.

What was measured:
human P2X7 = target: T1, human P2X7 (UniProt Q99572); experiment: Intracellular Calcium Flux (FLIPR) Assay; assay type: cell-based
T1 sequence (Q99572 1-595): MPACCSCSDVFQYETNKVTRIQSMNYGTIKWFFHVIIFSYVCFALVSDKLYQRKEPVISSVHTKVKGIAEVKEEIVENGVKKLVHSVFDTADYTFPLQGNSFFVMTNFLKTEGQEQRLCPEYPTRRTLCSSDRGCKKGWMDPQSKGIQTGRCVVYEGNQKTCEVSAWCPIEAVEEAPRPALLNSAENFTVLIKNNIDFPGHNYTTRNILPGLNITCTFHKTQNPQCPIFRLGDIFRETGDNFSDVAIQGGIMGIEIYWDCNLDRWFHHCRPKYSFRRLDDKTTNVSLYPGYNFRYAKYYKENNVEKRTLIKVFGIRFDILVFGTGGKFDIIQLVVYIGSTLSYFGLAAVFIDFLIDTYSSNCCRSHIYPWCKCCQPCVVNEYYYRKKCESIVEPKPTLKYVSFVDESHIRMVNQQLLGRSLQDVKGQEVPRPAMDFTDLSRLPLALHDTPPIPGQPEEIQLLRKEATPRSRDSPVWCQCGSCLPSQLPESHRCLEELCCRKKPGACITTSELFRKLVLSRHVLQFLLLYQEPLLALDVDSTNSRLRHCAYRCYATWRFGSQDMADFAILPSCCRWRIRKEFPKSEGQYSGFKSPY
Description: Intracellular Calcium Flux (FLIPR) Assay
Compound and Reagent Preparation
Stock solutions of compounds were prepared from powders as a 10 mM DMSO stock solution. These solutions were stored at RT during the two week period of these experiments to prevent freeze-thaw of the DMSO stocks. The DMSO stocks were added to the appropriate assay buffer at a concentration of 10 μM, and then diluted serially to the final concentrations that were tested. No observable precipitate was formed at any time during this process. The aqueous solutions of compounds as well as ATP (Sigma A7699) and BzATP (Sigma B6396) were prepared fresh for each day of experiment.
1321N1 cells stably expressing the full length human P2X7 gene (1321N1-hP2X7) and HEK293 cells stably expressing the full length rat P2X7 gene (HEK293-rP2X7) were obtained from the Roche Cell Culture Facility. 1321N1-hP2X7 cells were grown in Dulbecco's Modified Eagle's Medium (DMEM) high glucose supplemented with 10% FBS and […] G418. HEK293-rP2X7 cells were grown in DMEM/F-12 supplemented with 10% FBS, 1 mM CaCl2, 2 mM MgCl2, 2 mM L-Glutamine and […] G418. Cells were split such that they never became >70% confluent.
Intracellular Calcium Flux (FLIPR)
On the day prior to the experiment, 1321N1-hP2X7 or HEK293-rP2X7 cells were released into suspension with calcium-free PBS+Versene and washed by centrifugation with calcium-free PBS to remove the Versene. Cells were resuspended in growth medium at a density of 2.5×10^5 cells/mL and seeded into black walled, clear bottom 96 well plates (50,000 cells/well) approximately 18 hr prior to intracellular calcium flux experiments.
On the day of the experiment, plates were washed with FLIPR buffer (calcium- and magnesium-free Hank's Balanced Salt Solution (HBSS) supplemented with 10 mM Hepes, 2.5 mM probenecid and 2 mM calcium chloride) using a BIO-TEK 96 channel plate washer and incubated with […] fluo-3 dye at 37° C. for one hr. The dye was then removed by plate washing and the cells were allowed to equilibrate for 20 min at room temperature with antagonist or vehicle (FLIPR buffer). Agonist (100 μM BzATP final concentration for hP2X7; 5 μM BzATP final concentration or rP2X7) was added online with the FLIPR and fluorescence measurements made at 1 sec intervals for 60 sec followed by 3 sec intervals for a further 4 min (5 min total). A final addition of 5 μM ionomycin was made and the maximal BzATP-evoked fluorescence normalized to the maximal ionomycin-evoked fluorescence.

SMILES: COc1cc(C)c(Nc2nnc3n2C(c2ccc(F)cc2)CSC3)cc1OC (stereo not drawn) [Compound 18, (4,5-Dimethoxy-2-methyl-phenyl)-[5-(4-fluoro-phenyl)-5,6-dihydro-8H-[1,2,4]triazolo[3,4-c][1,4]thiazin-3-yl]-amine]
pIC50 (human P2X7): 7.58
melting point: 165 to 166 °C

SMILES: COc1cc(C)c(Nc2nnc3n2C(c2ccc(F)cc2)CS(=O)(=O)C3)cc1OC (stereo not drawn) [Compound 19, (4,5-Dimethoxy-2-methyl-phenyl)-[5-(4-fluoro-phenyl)-7,7-dioxo-5,6,7,8-tetrahydro-7λ^6-[1,2,4]triazolo[3,4-c][1,4]thiazin-3-yl]-amine]
pIC50 (human P2X7): 6.96
melting point: 226 to 227 °C

Second part, the compound after the results:

pIC50 (human P2X7): 7.59
melting point: 161 to 162 °C
SMILES: Cc1cc(Cl)c(OCCO)cc1Nc1nnc2n1[C@H](c1ccc(F)cc1)COC2 [Compound 21, 2-{2-Chloro-5-[(R)-5-(4-fluoro-phenyl)-5,6-dihydro-8H-[1,2,4]triazolo[3,4-c][1,4]oxazin-3-ylamino]-4-methyl-phenoxy}-ethanol]

pIC50 (human P2X7): 7.605
melting point: 215 to 217 °C
SMILES: Cc1cc2cnn(CCO)c2cc1Nc1nnc2n1[C@H](c1ccc(F)cc1)COC2 [Compound 39, 2-{6-[(R)-5-(4-Fluoro-phenyl)-5,6-dihydro-8H-[1,2,4]triazolo[3,4-c][1,4]oxazin-3-ylamino]-5-methyl-indazol-1-yl}-ethanol]

pIC50 (human P2X7): 8.035
SMILES: Cn1nccc(-c2ccc(F)c(Nc3nnc4n3[C@H](c3ccc(F)cc3)COC4)c2)c1=O [Compound 55, 4-{4-Fluoro-3-[(R)-5-(4-fluoro-phenyl)-5,6-dihydro-8H-[1,2,4]triazolo[3,4-c][1,4]oxazin-3-ylamino]-phenyl}-2-methyl-2H-pyridazin-3-one]
